The nature of data set [1]: Photocleavage of BODIPY-CAB and photorelease of CAB in solution, determined by HPLC. In kind it is physicochemical. An excerpt:
FIG. 4. HPLC spectra of CAB (10^−4 M), PtTPBP (10^−5 M), BODIPY-CAB (10^−4 M), BODIPY-CAB (10^−4 M) with 530 nm irradiation (44 mW/cm^2) for 15 s under N2 atmosphere, the mixture of BODIPY-CAB (10^−4 M) and PtTPBP (10^−5 M) with 625 nm irradiation (44 mW/cm^2) for 15 s under N2 atmosphere, the mixture of BODIPY-CAB (10^−4 M) and PtTPBP (10^−5 M) without irradiation under N2 atmosphere, and BODIPY-CAB (10^−4 M) with 625 nm irradiation (44 mW/cm^2) for 15 s under N2 atmosphere. The detection wavelength was 260 nm. A small amount of toluene, whose peak was located at ˜8.7 min, was used to increase the solubility of PtTPBP. The yellow arrows indicate the signal of CAB; the red arrows indicate the signal of BODIPY-CAB; and the green arrows indicate the signal of PtTPBP.
FIG. 5. Photocleavage rate of the prodrug (BODIPY-CAB), as determined by HPLC (detected at 540 nm), after irradiation with 625 nm LED light at 44 mW/cm^2. The mixed solution of BODIPY-CAB (10^−4 M) and PtTPBP (10^−5 M, […] or 0 M) was protected under nitrogen (N2) or exposed in the air, and then irradiated for different time periods in the mixed solvents of dichloromethane (DCM) and methanol (1:9, v/v). The solution (50 μL) was then analyzed by HPLC to measure the concentration of BODIPY-CAB. Data are means±SD, n=3.
FIG. 6. Photorelease of the free drug (CAB), as determined by HPLC (detected at 260 nm), after irradiation with 625 nm LED light at 44 mW/cm^2. The mixed solution of BODIPY-CAB (10^−4 M) and PtTPBP ([…], 5×10^−6 M, 10^−6 M or 0 M) was protected under nitrogen (N2) or exposed in the air, and then irradiated for different time periods in the mixed solvents of dichloromethane (DCM) and methanol (1:9, v/v). The solution (50 μL) was then analyzed by HPLC to measure the concentration of CAB. Data are means f SD, n=3.
The intermediates and the final product were characterized by proton nuclear magnetic resonance (^1H NMR) spectra (FIG. 12-FIG. 15). The absorption and emission peaks of BODIPY-CAB were located at the wavelength of 543 nm and 567 nm, respectively (FIG. 3). To confirm whether the BODIPY prodrug could be sensitized by PtTPBP and could further be cleaved to release the drug, high performance liquid chromatography (HPLC) was utilized to monitor the generation of CAB. […] After addition of photosensitizer PtTPBP, the mixture solution of PtTPBP and BODIPY-CAB was irradiated with 625 nm light for 15 sec.
Furthermore, the photocleavage of BODIPY-CAB was investigated with different ratios of BODIPY-CAB and PtTPBP upon 625 nm light irradiation. […] When the concentration of photosensitizer was decreased, the photocleavage of BODIPY-CAB slowed down. […] Moreover, as O2 can quench the triplet excited state of PtTPBP, the prodrug cannot be cleaved efficiently in the presence of O2.

For data set [2] the following is noted: literature ref. [10]; cited from earlier work.

Molecules are shown by their SMILES.

With `CC1=C(I)C(C)=[N+]2C1=C(COC(=O)CCCc1ccc(N(CCCl)CCCl)cc1)c1c(C)c(I)c(C)n1[B-]2(C)C` [BODIPY-CAB], the “generation of CAB (HPLC)” value in data set [1] (530 nm (44 mW/cm^2), 15 s, no photosensitizer, N2) is reported as “leads to the release of CAB”; in data set [1] (625 nm (44 mW/cm^2), 15 s, with PtTPBP, N2), “new peak located at ˜11.2 min was appeared”; in data set [1] (625 nm, 15 s, in the absence of PtTPBP, N2), “did not generate CAB”; in data set [1] (mixture with PtTPBP not irradiated, N2) it was “did not generate CAB”. Further, in data set [1] (625 nm, with PtTPBP, in the air atmosphere (O2)), the “rate of photocleavage and photorelease” value is “dramatically deceased rate of photocleavage and photorelease”. Moreover, the “prodrug remained in the solution” value in data set [1] (BODIPY-CAB:PtTPBP 100:1, 625 nm LED 44 mW/cm^2, 30 s, N2) came out at 59.6%. In data set [1] (BODIPY-CAB:PtTPBP 100:10, 625 nm LED 44 mW/cm^2, 15 s, N2), the “photocleavage of the prodrug” value is listed as “almost cleaved completely”. For the same compound, the “free drug CAB released” value in data set [1] (BODIPY-CAB:PtTPBP 100:10, 625 nm LED 44 mW/cm^2, 15 s, N2, DCM/methanol 1:9) was determined as 41.7%.

For the compound `[Pt+2].c1ccc(-c2c3nc(c(-c4ccccc4)c4[n-]c(c(-c5ccccc5)c5nc(c(-c6ccccc6)c6[n-]c2c2ccccc62)-c2ccccc2-5)c2ccccc42)-c2ccccc2-3)cc1` [PtTPBP, platinum (II) tetraphenyltetrabenzoporphyrin], in data set [2], the cytotoxicity entry is reported as “minimal”.
